Test: Example 3: phase 3 trial, enavogliflozin 0.3 mg vs dapagliflozin 10 mg once a day for 24 weeks added to metformin and gemigliptin in patients with type 2 diabetes (same endpoints, rescue drug)
Assay type: in vivo, human
Details: for Subjects achieving therapeutic glycemic response 1, %: response 1 = HbA1c change >0.5% or HbA1c <7%; for Subjects achieving therapeutic glycemic response 2, %: response 2 = HbA1c change >0.7% or HbA1c <7%; for Subjects achieving therapeutic glycemic response 3, %: response 3 = HbA1c change >1% or HbA1c <7%
Experimental: 1) when Metformin (≥1,000 mg/Day) was Administered at a Constant Dose for at Least 8 Weeks Prior to Pre-Visit (Pre-Screening) • Metformin (≥1,000 mg/day) and gemigliptin (50 mg/day) were co-administered during the 8-week stabilization period. […] 4) when Metformin (≥1,000 mg/Day) and Gemigliptin (50 mg/Day) were Co-Administered at Constant Doses for at Least 8 Weeks Prior to Pre-Visit (Prescreening) • Without a separate stabilization period, Pre-visit (pre-screening) was Visit 1 (screening).
Subjects who met the inclusion/exclusion criteria continued to receive metformin and gemigliptin while receiving a placebo of the clinical trial drug in a single-blind (subject-blinded) state for a 2-week run-in period.
Here, the randomized subjects were stratified according to the administration therapy (co-administration with two or less agents (one or two agents) or three or more agents) of a conventional hypoglycemic agent (before washout of another hypoglycemic agent) within 24 weeks prior to obtaining written informed consent and by an HbA1c value (<8% or ≥8%) at Visit 1 (screening) measured in the central laboratory.
The randomized subjects were administered two tablets of the clinical trial drug corresponding to each administration group once a day, and then visited the institution at weeks 6, 12, 18, and 24 during the 24-week administration period to conduct efficacy and safety assessments. In addition, during the clinical trial period, they were instructed to exercise regularly and control their diet without changing their daily life patterns.
• 1) Change in HbA1c at week 24 after administration of clinical trial drug compared to Visit 2 (randomization)
• 1) Change in HbA1c at each time point of weeks 6, 12, and 18 after administration of clinical trial drug compared to Visit 2 (randomization) • 2) Change in FPG at each time point of weeks 6, 12, 18, and 24 after administration of clinical trial drug compared to Visit 2 (randomization) • 3) Proportion of subjects achieving HbA1c<7% at each time point of weeks 6, 12, 18, and 24 after administration of clinical trial drug • 4) Proportion of subjects achieving HbA1c<6.5% at each time point of weeks 6, 12, 18, and 24 after administration of clinical trial drug • 5) Proportion of subjects achieving therapeutic response (HbA1c change (HbA1c at Visit 2—HbA1c at each evaluation time point)>0.5% or HbA1c<7% at each evaluation time point compared to Visit 2 (randomization)) at each time point of weeks 6, 12, 18, and 24 after administration of clinical trial drug • 6) Proportion of subjects achieving therapeutic response (HbA1c change (HbA1c at Visit 2—HbA1c at each evaluation time point)>0.7% or HbA1c<7% at each evaluation time point compared to Visit 2 (randomization)) at each time point of weeks 6, 12, 18, and 24 after administration of clinical trial drug • 7) Proportion of subjects achieving therapeutic response (HbA1c change (HbA1c at Visit 2—HbA1c at each evaluation time point)>1% or HbA1c<7% at each evaluation time point compared to Visit 2 (randomization)) at each time point of weeks 6, 12, 18, and 24 after administration of clinical trial drug

[1] = week 18, per-protocol set, enavogliflozin 0.3 mg, dapagliflozin 10 mg
[2] = week 24, modified per-protocol set 1, enavogliflozin 0.3 mg, dapagliflozin 10 mg
[3] = week 24, modified per-protocol set 2
[4] = week 24, modified per-protocol set 2, enavogliflozin 0.3 mg, dapagliflozin 10 mg
[5] = week 24, per-protocol set, enavogliflozin 0.3 mg, dapagliflozin 10 mg

CCOc1ccc(Cc2cc([C@@H]3O[C@H](CO)[C@@H](O)[C@H](O)[C@H]3O)ccc2Cl)cc1 [Dapagliflozin, reference compound]
body weight, Median [1]: 62.30 kg | Subjects achieving therapeutic glycemic response 1, % [1]: 82.93% | Subjects achieving therapeutic glycemic response 2, % [1]: 76.42% | Subjects achieving therapeutic glycemic response 3, % [1]: 70.73% | FPG change from baseline, LS mean (SE) (week 24): −23.72(1.78) mg/dL | HDL-C change from baseline, LS mean (SE) (week 24): 4.40(0.69) mg/dL | HOMA-IR change from baseline, LS mean (SE) (week 24): −0.93(0.11) | HOMA-β change from baseline, LS mean (SE) (week 24): 5.78(4.72) | HbA1c change from baseline, LS mean (SE) (week 24): −0.86(0.05) % p | HbA1c change from baseline, Mean (SD) (week 24): −0.89(0.65) % p | LDL-C change from baseline, LS mean (SE) (week 24): 3.12(1.85) mg/dL | UACR change from baseline, LS mean (SE) (week 24): −16.13 (3.84) g/kg | UGCR change from baseline, LS mean (SE) (week 24): 43.51(2.26) mg/mg | adiponectin change from baseline, LS mean (SE) (week 24): 0.92(0.35) μg/mL | body weight change from baseline, LS mean (SE) (week 24): −3.01(0.22) kg | diastolic blood pressure change from baseline, LS mean (SE) (week 24): −1.89(0.70) mmHg | fasting C-peptide change from baseline, LS mean (SE) (week 24): −0.08(0.02) ng/ml | leptin change from baseline, LS mean (SE) (week 24): −0.57(0.51) ng/mL | systolic blood pressure change from baseline, LS mean (SE) (week 24): −4.27(0.93) mmHg | total cholesterol change from baseline, LS mean (SE) (week 24): 5.57(2.03) mg/dL | triglyceride change from baseline, LS mean (SE) (week 24): −8.78(3.94) mg/dL | Proportion of subjects who received a rescue drug (week 24, FAS): 0.74% | Change from baseline in HDL-C, ANCOVA LS mean [2]: 4.40 mg/dL | Change from baseline in HDL-C, Mean [2]: 4.44 mg/dL | Change from baseline in HDL-C, Median [2]: 4.00 mg/dL | Change from baseline in LDL-C, ANCOVA LS mean [2]: 3.12 mg/dL | Change from baseline in LDL-C, Mean [2]: 2.72 mg/dL | Change from baseline in LDL-C, Median [2]: 1.50 mg/dL | Change from baseline in total cholesterol, ANCOVA LS mean [2]: 5.57 mg/dL | Change from baseline in total cholesterol, Mean [2]: 4.69 mg/dL | Change from baseline in total cholesterol, Median [2]: 3.00 mg/dL | Change from baseline in triglycerides, ANCOVA LS mean [2]: -8.78 mg/dL | Change from baseline in triglycerides, Mean [2]: -13.81 mg/dL | Change from baseline in triglycerides, Median [2]: -6.00 mg/dL | Fasting HDL-C, Mean [2]: 51.87 mg/dL | Fasting HDL-C, Median [2]: 50.50 mg/dL | Fasting LDL-C, Mean [2]: 80.13 mg/dL | Fasting LDL-C, Median [2]: 71.50 mg/dL | Fasting total cholesterol, Mean [2]: 148.49 mg/dL | Fasting triglycerides, Mean [2]: 118.68 mg/dL | Fasting triglycerides, Median [2]: 104.00 mg/dL | fasting Total cholesterol, Median [2]: 145.00 mg/dL | Change from baseline in diastolic blood pressure, ANCOVA LS mean [3]: −1.89 mmHg | Change from baseline in diastolic blood pressure, Mean [3]: −1.60 mmHg | Change from baseline in diastolic blood pressure, Median [3]: −2.00 mmHg | Diastolic blood pressure, Mean [3]: 72.27 mmHg | Diastolic blood pressure, Median [3]: 73.00 mmHg | Change from baseline in systolic blood pressure, ANCOVA LS mean [4]: −4.27 mmHg | Change from baseline in systolic blood pressure, Mean [4]: −3.74 mmHg | Change from baseline in systolic blood pressure, Median [4]: −4.00 mmHg | Systolic blood pressure, Mean [4]: 120.20 mmHg | Systolic blood pressure, Median [4]: 119.00 mmHg | Adiponectin, Mean (week 24, per-protocol set): 7.18 µg/mL | Adiponectin, Median (week 24, per-protocol set): 6.39 µg/mL | Change from baseline in HOMA-IR, ANCOVA LS mean (week 24, per-protocol set): −0.93 | Change from baseline in HOMA-IR, Mean (week 24, per-protocol set): −0.88 | Change from baseline in HOMA-IR, Median (week 24, per-protocol set): −0.70 | Change from baseline in HOMA-β, ANCOVA LS mean (week 24, per-protocol set): 5.78 | Change from baseline in HOMA-β, Mean (week 24, per-protocol set): 7.95 | Change from baseline in HOMA-β, Median (week 24, per-protocol set): 7.20 | Change from baseline in UACR, ANCOVA LS mean (week 24, per-protocol set): -16.13 g/kg | Change from baseline in UACR, Mean (week 24, per-protocol set): -11.12 g/kg | Change from baseline in UACR, Median (week 24, per-protocol set): -0.70 g/kg | Change from baseline in UGCR, ANCOVA LS mean (week 24, per-protocol set): 43.51 mg/mg | Change from baseline in UGCR, Mean (week 24, per-protocol set): 42.31 mg/mg | Change from baseline in UGCR, Median (week 24, per-protocol set): 42.35 mg/mg | Change from baseline in adiponectin, ANCOVA LS mean (week 24, per-protocol set): 0.92 µg/mL | Change from baseline in adiponectin, Mean (week 24, per-protocol set): 0.84 µg/mL | Change from baseline in adiponectin, Median (week 24, per-protocol set): 0.78 µg/mL | Change from baseline in leptin, ANCOVA LS mean (week 24, per-protocol set): -0.57 ng/mL | Change from baseline in leptin, Mean (week 24, per-protocol set): -0.74 ng/mL | Change from baseline in leptin, Median (week 24, per-protocol set): -0.46 ng/mL | HOMA-IR (insulin resistance), Mean (week 24, per-protocol set): 1.97 | HOMA-IR (insulin resistance), Median (week 24, per-protocol set): 1.55 | HOMA-β (beta-cell function), Mean (week 24, per-protocol set): 48.41 | HOMA-β (beta-cell function), Median (week 24, per-protocol set): 36.70 | Leptin, Mean (week 24, per-protocol set): 10.10 ng/mL | Leptin, Median (week 24, per-protocol set): 8.14 ng/mL | UACR, Mean (week 24, per-protocol set): 23.58 g/kg | UACR, Median (week 24, per-protocol set): 10.20 g/kg | UGCR, Mean (week 24, per-protocol set): 43.84 mg/mg | UGCR, Median (week 24, per-protocol set): 42.85 mg/mg | Body weight, Mean [5]: 64.38 kg | Change from baseline in FPG, ANCOVA LS mean [5]: -23.72 mg/dL | Change from baseline in FPG, Mean [5]: -23.70 mg/dL | Change from baseline in FPG, Median [5]: -20.00 mg/dL | Change from baseline in body weight, ANCOVA LS mean [5]: -3.01 kg | Change from baseline in body weight, Mean [5]: -2.83 kg | Change from baseline in body weight, Median [5]: -2.60 kg | Change from baseline in fasting C-peptide, ANCOVA LS mean [5]: -0.08 ng/mL | Change from baseline in fasting C-peptide, Mean [5]: -0.07 ng/mL | Change from baseline in fasting C-peptide, Median [5]: -0.10 ng/mL | FPG, Mean [5]: 116.82 mg/dL | FPG, Median [5]: 114.00 mg/dL | Fasting C-peptide, Mean [5]: 0.62 ng/mL | Fasting C-peptide, Median [5]: 0.56 ng/mL | Subjects achieving HbA1c target of <6.5%, (%) [5]: 17.07% | Subjects achieving HbA1c target of <7%, % [5]: 62.60% | body weight, Median [5]: 62.90 kg | Subjects achieving therapeutic glycemic response 1, % [5]: 85.37% | Subjects achieving therapeutic glycemic response 2, % [5]: 82.11% | Subjects achieving therapeutic glycemic response 3, % [5]: 74.80%

Source: patent publication US20260130933A1, “PHARMACEUTICAL COMPOSITION FOR PREVENTION OR TREATMENT OF NEPHROPATHY AND/OR DIABETES MELLITUS, COMPRISING ENAVOGLIFLOZIN” (DAEWOONG PHARMACEUTICAL CO., LTD., priority 2022, published 2026)
